Experimental findings from US12048766B2, “Gamma polyglutamated tetrahydrofolates and uses thereof” (L.E.A.F. HOLDINGS GROUP LLC, priority 2018, dated 2024) are described below.

For one data set, the system named is HT-29 (colon cancer). Description: CellTiter-Glo luminescent cell viability assay, HT-29. It counts as cell-based, human. Particulars: 48 hours, FIG. 3. The method, then:
Luciferase luminescence were recorded for each well.
(ATP-based viability assays read luminescence as a measure of living cells.)

The next data set concerns AML12 liver cells. Description: Toxicity on AML12 liver cells. The data set is classed as cell-based. Particulars: all doses studied (16 to 128 nM); 48 hours; FIG. 14. From the text:
(§1) Methodologies used for cell line AML12 (non-cancerous liver cells) and CCD841 (non-cancerous colon epithelial cells) are similar to the methods used for cancer cells.

The subject of data set [1] is CCD841 colon epithelium cells. Description: Toxicity on CCD841 colon epithelium cells. The data set is classed as cell-based. Conditions: all concentrations tested (16 to 128 nM); 48 hours; FIG. 15.
Description: as §1

Structures are written as SMILES.

Consider `Nc1nc(=O)c2c(CCc3ccc(C(=O)N[C@@H](CCC(=O)N[C@@H](CCC(=O)N[C@@H](CCC(=O)N[C@@H](CCC(=O)N[C@@H](CCC(=O)N[C@@H](CCC(=O)O)C(=O)O)C(=O)O)C(=O)O)C(=O)O)C(=O)O)C(=O)O)cc3)c[nH]c2[nH]1` [gG6, pemetrexed L-gamma hexaglutamate], for which the “potency rank among test articles” value in the data set with HT-29 (colon cancer) is “least potent”.

As for `Nc1nc2[nH]cc(CCc3ccc(C(=O)N[C@@H](CCC(=O)O)C(=O)O)cc3)c2c(=O)[nH]1` [pemetrexed], in the data set on AML12 liver cells, the “reduction in AML12 liver cell counts” value is “approximately 40%”. Further, in data set [1], the “decrease in the number of CCD841 colon epithelium cells” value is recorded as not below 50%.
